Measurements as given in patent publication US6677376B1, “Non-peptidic cyclophilin binding compounds and their use” (Guilford Pharmaceuticals, Inc., priority 1999, dated 2004).

Tests used:
CyP A = CyP A (Homo sapiens, UniProt P62937)
Description: A number of substrates for rotamase are known in the art or can be derived from those known. Typically, the substrate contacts a sample containing a protein with rotamase activity and the conversion of the substrate is detected after a period of time. The method for detecting conversion of the substrate will vary with the particular substrate chosen.
The absorbance at 390 nm versus time is monitored for 90 seconds using a spectrophotometer and the rate constants are determined from the absorbance versus time data files.
While CyP A is used in these examples, other CyP proteins can be substituted.

[1] = tested on: dorsal root ganglion (DRG) cells; assay: Neurite outgrowth in dorsal root ganglion (DRG) explant cultures; type: cell-based, mouse; details: for neurotrophic or neuroprotectant activity: assay not specified; for neuronal cell growth/neurite extension (images): compared to control, 48 hrs
Description: FIG. 7: Primary DRG cultures were used to test for neurotrophic, neurite outgrowth promoting, and neuroregenerative activity. Each of the compounds was incubated with cells at a concentration of 1 μM for 48 hours, as detailed in the examples.
Spinal cord and dorsal root ganglion (DRG) cells from adult mice can be isolated by micro-dissection. The spinal cord with attached DRGs from an adult mouse ([…]) is removed. Spinal nerves are cut away using micro-dissection scissors and any excess material is trimmed until the DRG is free. Using sharp micro-dissecting scissors, a transverse cut is made in the peripheral nerve, leaving 1-2 mm attached, and the explant placed into Petri dish and covered with plating media. When finished collecting all DRGs, the spinal nerve is trimmed to about […] in length. Then embed the explant in 30 μL of reduced growth factor Matrigel on a circular coverslip, and place in a […] culture dish. Cover the sensory ganglion explant with 2 mls of media. Compounds, drugs or control solutions are added from 10× stocks, and incubated at 37° C., 5% CO2, 95% humidity for 48 hrs. Wash cultures twice with PBS, and fix with 10% formalin for 30 minutes. Wash the fixed cultures twice with PBS and store refrigerated in PBS.
Place cultures in Block Buffer (5% Horse Serum, 5% Goat Serum, 1% Triton X, PBS pH=7.4) overnight, while rotating, at a temperature of 4° C. Add primary antibody (Beta tubulin, Sigma Chemical Co.) diluted in Block Buffer and incubate overnight at 4° C. Wash 5 times with PBS and apply secondary antibody (Alexa 488 Goat Anti-Mouse) diluted in block buffer. Incubate overnight at 4° C. Wash 5 times with PBS and leave overnight at 4 degrees. Coverslip the cultures and measure total neurite length from the end of the attached spinal nerve. Lengths of all neurites are quantitated and compared to those present in vehicle-treated control DRGs.

spinal motor neurons = assay: Neuroprotection assay: THA neurotoxicity in spinal cord slice cultures; type: cell-based, Sprague-Dawley rat; details: THA 200 μM + compound 10 μM, primary cultures of spinal motor neurons
Description: For each of FIGS. 1-7, the bar graphs represent the number of viable neurons after a specified treatment regimen employed in a neuroprotective activity assay. The cells of the experiments were treated with a control solution, a neurotoxic solution, and neurotoxic+experimental compound solution. The statistical significance, p, is calculated using the standard 2 tailed Student's t test.
Each experiment consisted of two 6-well plates with 5 slices from 4 different animals per well. Media changes were performed every 3 to 4 days. […] The control was an untreated sample with 0.1% DMSO as vehicle. The THA control was a THA treated sample with 0.1% DSMO as vehicle. Two wells were used per condition. One media change with new THA and compounds was performed. […]
Quantification of surviving neurons was performed on a Ziess Axiovert microscope. Neuronal survival was determined by observing an intact neuronal cell body with processes located ventrally of the central canal in each hemisphere. […] Each hemisphere was counted individually. The statistics were performed with StatView software on a minimum of three different experiments per condition and significance was determined as compared to THA control. The percent of protection was determined from the average number of living neurons by the following equation: (drug treatment condition−THA control)/(Untreated control−THA control).

CyP A, sequence (P62937 whole entry): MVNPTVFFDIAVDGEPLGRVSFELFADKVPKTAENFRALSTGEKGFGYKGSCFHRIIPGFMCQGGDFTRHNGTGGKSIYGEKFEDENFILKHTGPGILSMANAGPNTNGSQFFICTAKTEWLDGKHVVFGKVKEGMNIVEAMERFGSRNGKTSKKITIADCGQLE

N#Cc1cccc(NC(=O)NCc2cccc(CNC(=O)Nc3cccc(C#N)c3)c2)c1 [Compound 32]
% Inhibition at 10 μM (CyP A): None detected

CSc1ccc(Cl)cc1C(=O)Nc1cccc(NC(=O)c2cc(Cl)ccc2SC)c1 [Compound 6]
neurotrophic or neuroprotectant activity [1]: possess neurotrophic or neuroprotectant activity
neuronal cell growth/neurite extension (images) [1]: increase in neuronal cell growth/neurite extension

O=C(NCc1cccc2ccccc12)c1cccc(NC(=O)c2cc(Cl)cc(Cl)c2)c1 [Compound 16, {3-[(3,5-dichlorophenyl)carbonylamino]phenyl}-N-(naphthylmethyl) formamide]
melting point: 205 to 208 °C

O=C(Nc1ccc(I)cc1)Nc1cc(NC(=O)Nc2ccc(I)cc2)c(Br)cc1Br [Compound 3]
neuronal cell growth/neurite extension (images) [1]: increase in neuronal cell growth/neurite extension
neuroprotective activity (number of viable neurons) (spinal motor neurons): displays neuroprotective activity

O=C(Nc1ccccc1)Nc1cc(NC(=O)Nc2ccccc2)cc(C(F)(F)F)c1 [Compound 7]
neurotrophic or neuroprotectant activity [1]: possess neurotrophic or neuroprotectant activity
neuronal cell growth/neurite extension (images) [1]: increase in neuronal cell growth/neurite extension

cyclosporin A [reference compound]
neuroprotective activity (number of viable neurons) (spinal motor neurons): maintains neuronal viability
